Patent US7482348B2, “Piperazinyl substituted cyclohexane-1,4-diamines” (Janssen Pharmaceutica N.V., priority 2005, dated 2009)

Assays:
α1d-AR = target: T1, α1d-AR (Homo sapiens, UniProt P25100); assay: α1-Adrenergic receptor radio-ligand (125I-HEAT) binding assay, α1d subtype; settings: membranes of transfected COS-7 cells, 125I-HEAT 50 pM
T1 construct: expressed in transfected cells; host or cells: COS-7 (African green monkey kidney) membranes
T1 sequence (P25100 1-572): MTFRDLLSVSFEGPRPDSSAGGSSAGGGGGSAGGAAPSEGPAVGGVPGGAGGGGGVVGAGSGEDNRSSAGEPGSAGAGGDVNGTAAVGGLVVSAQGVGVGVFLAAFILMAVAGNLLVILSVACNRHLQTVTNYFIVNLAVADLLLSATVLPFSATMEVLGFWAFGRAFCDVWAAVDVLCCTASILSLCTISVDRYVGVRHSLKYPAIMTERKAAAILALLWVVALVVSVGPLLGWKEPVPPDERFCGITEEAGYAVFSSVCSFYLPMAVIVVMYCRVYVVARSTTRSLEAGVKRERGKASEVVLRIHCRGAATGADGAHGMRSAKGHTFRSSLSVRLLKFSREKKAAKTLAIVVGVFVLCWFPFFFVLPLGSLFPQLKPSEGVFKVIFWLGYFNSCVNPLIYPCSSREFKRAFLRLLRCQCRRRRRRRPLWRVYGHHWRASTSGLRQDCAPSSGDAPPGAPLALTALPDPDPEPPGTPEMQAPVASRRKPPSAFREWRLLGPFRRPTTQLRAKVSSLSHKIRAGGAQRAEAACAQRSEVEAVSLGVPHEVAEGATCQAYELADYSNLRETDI
Protocol: (§1) α1-Adrenergic Receptor Binding Assay
(§2) Preparation of COS Cell Membranes
(§3) Membranes were prepared from COS-7 cells (African Green monkey kidney SV40-transformed cells) that had been transfected with one of the three α1-AR subtypes (Genbank accession number for the α1a subtype: AF013261; Genbank accession number for the α1b subtype: NM000679; Genbank accession number for the α1d subtype: NM000678) using the following method: COS cells from ten 100 mm tissue culture plates were scraped into a 5 mL volume of TE (a mixture of 50 mM Tris-HCl, 5 mM EDTA, pH 7.4). The cell suspension was disrupted with a Brinkman Polytron (at a setting of 8) for 10 sec. The disrupted cells were centrifuged at 1000×g for 10 min at 4° C. Supernatants were centrifuged at 34,500×g for 20 min at 4° C. The membrane pellets were suspended in a 2 mL volume of TNE (a mixture of 50 mM Tris-HCl, 5 mM EDTA and 150 mM NaCl at pH 7.4). An aliquot of the membrane suspension was stored at −70° C. until use. The protein concentration was determined using the BioRad “DC” protein assay kit following membrane solubilization with Triton X-100.
(§4) Radio-ligand Binding Assay
(§5) Triplicate determinations of radio-ligand binding in the presence of increasing concentrations of testing compound were made. The reagents were added to 96-well polypropylene plate wells. Each assay well contained 140 μL TNE, 25 μL ^125I-2-(β-4-hydroxyphenyl)ethylaminomethyltetralone (^125I-HEAT) (specific activity 2200 Ci/mmol, Dupont-New England Nuclear, 50 pM final), 10 μL testing compound dissolved in dimethyl sulfoxide (DMSO) (1 pM to 10 μM in half-log increments, final), and 25 μL appropriate α1-AR membrane subtype suspension in TNE (0.5 ng/μL for the α1a and α1b subtypes and 13 ng/μL for the α1d subtype). The plate was incubated at rt for 1 hr. The contents of the wells were filtered through a glass filter (type C) (GF/C) membrane Unifilter plate (Packard Instruments) using the Packard Filtermate cell harvester. The filter plates were dried in a vacuum oven for 30 min at 40° C. 25 μL Microscint 20 liquid scintillation fluid (Packard Instuments) was added to each well. The radioactive content was analyzed in the TopCount microplate scintillation counter (Packard Instruments).
(§6) The Ki values (in nM) shown in Table 1 were determined using GraphPad Prism software.

α1b-AR = target: T2, α1b-AR (Homo sapiens, UniProt P35368); assay: α1-Adrenergic receptor radio-ligand (125I-HEAT) binding assay, α1b subtype; settings: membranes of transfected COS-7 cells, 125I-HEAT 50 pM
T2 construct: expressed in transfected cells; host or cells: COS-7 (African green monkey kidney) membranes
T2 sequence (P35368 1-520): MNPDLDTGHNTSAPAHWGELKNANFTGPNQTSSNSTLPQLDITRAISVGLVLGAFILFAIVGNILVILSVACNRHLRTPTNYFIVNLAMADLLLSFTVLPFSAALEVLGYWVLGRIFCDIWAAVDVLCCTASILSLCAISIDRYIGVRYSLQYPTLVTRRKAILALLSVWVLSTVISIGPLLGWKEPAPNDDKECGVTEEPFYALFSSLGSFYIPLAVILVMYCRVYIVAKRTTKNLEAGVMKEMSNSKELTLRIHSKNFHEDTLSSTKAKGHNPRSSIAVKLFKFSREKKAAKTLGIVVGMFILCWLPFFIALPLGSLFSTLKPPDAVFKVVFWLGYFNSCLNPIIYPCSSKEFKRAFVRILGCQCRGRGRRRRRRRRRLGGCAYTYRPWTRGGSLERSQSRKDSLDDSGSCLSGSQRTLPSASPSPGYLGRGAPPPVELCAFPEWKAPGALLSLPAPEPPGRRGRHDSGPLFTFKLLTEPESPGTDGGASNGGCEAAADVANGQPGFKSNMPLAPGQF
Protocol: as §1, §2, §3, §4, §5, §6

α1a-AR = target: T3, α1a-AR (Homo sapiens, UniProt P35348); assay: α1-Adrenergic receptor radio-ligand (125I-HEAT) binding assay, α1a subtype; settings: membranes of transfected COS-7 cells, 125I-HEAT 50 pM
T3 construct: expressed in transfected cells; host or cells: COS-7 (African green monkey kidney) membranes
T3 sequence (P35348 1-455 isoform P35348-4): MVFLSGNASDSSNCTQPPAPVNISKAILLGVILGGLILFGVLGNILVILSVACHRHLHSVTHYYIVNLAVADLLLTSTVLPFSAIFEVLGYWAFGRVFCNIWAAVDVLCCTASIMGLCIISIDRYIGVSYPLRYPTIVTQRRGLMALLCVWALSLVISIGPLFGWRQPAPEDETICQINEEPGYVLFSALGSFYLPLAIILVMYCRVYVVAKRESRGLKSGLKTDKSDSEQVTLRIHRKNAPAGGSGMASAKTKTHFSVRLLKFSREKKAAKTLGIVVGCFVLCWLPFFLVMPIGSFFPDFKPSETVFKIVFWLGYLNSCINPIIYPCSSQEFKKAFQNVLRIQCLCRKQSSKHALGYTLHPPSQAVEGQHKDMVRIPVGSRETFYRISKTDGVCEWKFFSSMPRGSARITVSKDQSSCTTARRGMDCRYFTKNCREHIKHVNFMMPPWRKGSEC
Protocol: as §1, §2, §3, §4, §5, §6

[1] = tested on: α1a and α1d subtypes over the α1b subtype; settings: cited from earlier work

SMILES | Ki (α1d-AR) | Ki (α1b-AR) | Ki (α1a-AR) | selectivity for the α1a and α1d subtypes over the α1b subtype [1]
COc1ccc(S(=O)(=O)N[C@H]2CC[C@@H](N3CCN(c4ncccc4OC(C)C)CC3)CC2)cc1OC [Cpd 3, N-cis-{4-[4-(3-isopropoxy-pyridin-2-yl)-piperazin-1-yl]-cyclohexyl}-3,4-dimethoxy-benzenesulfonamide] | 19 nM | 112 nM | 61 nM | –
O=S(=O)(N[C@H]1CC[C@@H](N2CCN(c3ncccc3OCC3CC3)CC2)CC1)c1cc(Cl)ccc1F [Cpd 11, 5-chloro-N-cis-{4-[4-(3-cyclopropylmethoxy-pyridin-2-yl)-piperazin-1-yl]-cyclohexyl}-2-fluoro-benzenesulfonamide] | 43.6 nM | 952 nM | 35.7 nM | –
CCOc1ccccc1OCCN[C@H](C)Cc1ccc(OC)c(S(N)(=O)=O)c1 [Tamsulosin] | – | – | – | about 15 fold

Continued by falling Ki (α1d-AR), values first:

Ki (α1d-AR) | Ki (α1b-AR) | Ki (α1a-AR) | SMILES | selectivity for the α1a and α1d subtypes over the α1b subtype [1]
64 nM | 364 nM | 189 nM | COc1ccc(S(=O)(=O)N[C@H]2CC[C@@H](N3CCN(c4ncccc4OCC4CC4)CC3)CC2)cc1OC [Cpd 1, N-cis-{4-[4-(3-cyclopropylmethoxy-pyridin-2-yl)-piperazin-1-yl]-cyclohexyl}-3,4-dimethoxy-benzenesulfonamide] | –
48.3 nM | 601 nM | 18.7 nM | COc1ccc(Cl)cc1S(=O)(=O)N[C@H]1CC[C@@H](N2CCN(c3ncccc3OCC3CC3)CC2)CC1 [Cpd 9, 5-chloro-N-cis-{4-[4-(3-cyclopropylmethoxy-pyridin-2-yl)-piperazin-1-yl]-cyclohexyl}-2-methoxy-benzenesulfonamide] | –
15.3 nM | 1860 nM | 44.7 nM | CC(C)Oc1cccnc1N1CCN([C@H]2CC[C@@H](NS(=O)(=O)c3cc(Cl)ccc3F)CC2)CC1 [Cpd 7, 5-chloro-2-fluoro-N-cis-{4-[4-(3-isopropoxy-pyridin-2-yl)-piperazin-1-yl]-cyclohexyl}-benzenesulfonamide] | –
12.4 nM | 399 nM | 10.7 nM | COc1ccc(Cl)cc1S(=O)(=O)N[C@H]1CC[C@@H](N2CCN(c3ncccc3OC(C)C)CC2)CC1 [Cpd 5, 5-chloro-N-cis-{4-[4-(3-isopropoxy-pyridin-2-yl)-piperazin-1-yl]-cyclohexyl}-2-methoxy-benzenesulfonamide] | –
